Results as given in patent US7202261B2, “Calcilytic compounds” (NPS Pharmaceuticals, Inc., priority 1996, dated 2007).
pIC50: −log10 of the molar value. Where a name gives a salt, the structure may show the parent alone. Read-outs that look alike come from different tables or passages of the source.

Biological target: T1, human calcium receptor (Homo sapiens, UniProt P41180)
T1 construct: expressed in transfected cells
T1 sequence (P41180 20-1078): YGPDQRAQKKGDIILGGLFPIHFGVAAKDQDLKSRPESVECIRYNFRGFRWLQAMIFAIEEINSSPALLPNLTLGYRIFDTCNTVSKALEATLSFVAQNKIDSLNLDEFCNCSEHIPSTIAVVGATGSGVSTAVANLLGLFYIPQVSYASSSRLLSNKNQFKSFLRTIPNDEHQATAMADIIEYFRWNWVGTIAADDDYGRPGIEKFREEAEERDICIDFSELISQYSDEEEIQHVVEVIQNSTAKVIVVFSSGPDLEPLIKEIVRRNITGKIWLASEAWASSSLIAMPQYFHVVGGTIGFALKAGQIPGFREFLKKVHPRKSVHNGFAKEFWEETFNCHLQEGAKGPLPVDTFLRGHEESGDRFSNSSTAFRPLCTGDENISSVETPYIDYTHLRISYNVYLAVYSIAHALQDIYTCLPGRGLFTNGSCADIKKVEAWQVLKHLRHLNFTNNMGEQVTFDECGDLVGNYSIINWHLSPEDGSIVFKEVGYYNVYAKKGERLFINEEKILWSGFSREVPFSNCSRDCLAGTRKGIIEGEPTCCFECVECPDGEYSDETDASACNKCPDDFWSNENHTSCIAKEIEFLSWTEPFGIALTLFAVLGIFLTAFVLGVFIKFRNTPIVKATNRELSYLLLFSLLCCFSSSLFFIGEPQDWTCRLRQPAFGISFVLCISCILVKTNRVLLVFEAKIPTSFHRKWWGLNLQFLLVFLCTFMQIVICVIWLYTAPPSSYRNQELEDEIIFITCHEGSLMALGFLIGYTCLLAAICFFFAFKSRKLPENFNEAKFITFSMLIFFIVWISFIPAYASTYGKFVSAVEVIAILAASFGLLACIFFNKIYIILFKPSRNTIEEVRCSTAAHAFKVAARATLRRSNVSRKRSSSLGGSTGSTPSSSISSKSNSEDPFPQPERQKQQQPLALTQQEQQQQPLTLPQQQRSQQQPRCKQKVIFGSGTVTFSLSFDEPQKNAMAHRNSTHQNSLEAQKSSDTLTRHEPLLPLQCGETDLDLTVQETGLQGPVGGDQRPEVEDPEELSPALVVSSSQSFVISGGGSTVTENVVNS
Assay: Calcium Receptor Inhibitor Assay
Format: cell-based
Protocol: This example illustrates the use of the Calcium Receptor Inhibitor Assay. […] Res. 10 Suppl. […] Intracellular Ca^2+ was measured using fluo-3, a fluorescent calcium indicator.
The procedure was as follows:
1. Cells were maintained in T-150 flasks in selection media (DMEM supplemented with 10% fetal bovine serum and 200 μg/mL hygromycin B), under 5% CO2:95% air at 37° C. and were grown up to 90% confluency.
2. The medium was decanted and the cell monolayer was washed twice with phosphate-buffered saline (PBS) kept at 37° C. After the second wash, 6 mL of 0.02% EDTA in PBS was added and incubated for 4 minutes at 37° C. Following the incubation, cells were dispersed by gentle agitation.
3. Cells from 2 or 3 flasks were pooled and pelleted (100×g). The cellular pellet was resuspended in […] of SPF-PCB+ and pelleted again by centrifugation. This washing was done twice.
SPF-PCB was made up and stored at 4° C. On the day of use, SPF-PCB was supplemented with 1 mg/mL of D-glucose and 1 mM CaCl2 and then split into two fractions. To one fraction, bovine serum albumin (BSA; fraction V, ICN) was added at 5 mg/mL (SPF-PCB+). This buffer was used for washing, loading and maintaining the cells. The BSA-free fraction was used for diluting the cells in the cuvette for measurements of fluorescence.
5. Following the incubation period, the cells were pelleted by centrifugation. The resulting pellet was washed with SPF-PCB+. After this washing, cells were resuspended in SPF-PCB+ at a density of 1–2×10^6 cells/mL.
6. For recording fluorescent signals, 300 μL of cell suspension were diluted in 1.2 mL of SPF buffer containing 1 mM CaCl2 and 1 mg/mL of D-glucose. Measurements of fluorescence were performed at 37° C. with constant stirring using a spectrofluorimeter. […] To calibrate fluorescence signals, digitonin (5 mg/mL in ethanol) was added to obtain Fmax, and the apparent Fmin was determined by adding Tris-EGTA (2.5 M Tris-Base, 0.3 M EGTA).
7. To determine the potential calcilytic activity of test compounds, cells were incubated with test compound (or vehicle as a control) for 90 seconds before increasing the concentration of extracellular Ca^2+ from 1 to 2 mM. Calcilytic compounds were detected by their ability to block, in a concentration-dependent manner, increases in the concentration of intracellular Ca^2+ elicited by extracellular Ca^2+.

[1] = HEK 293 4.0–7 cells stably expressing the human calcium receptor, fluo-3, read-out: IC50 for blocking increases of intracellular Ca2+ elicited by extracellular Ca2+

COc1ccc(CC(C)(C)NCC(O)COc2cccc(-c3ccccc3)c2)cc1 (stereo not drawn) [Compound 61, N-[2-hydroxy-3-(3-phenylphenoxy)propyl]-1,1-dimethyl-2-(4-methoxyphenyl)ethylamine]
pIC50 [1]: > 5.00

COc1ccc(CC(C)(C)NCC(O)COc2ccc(-c3ccccc3)cc2)cc1 (stereo not drawn) [Compound 62, N-[2-Hydroxy-3-(4-phenylphenoxy)propyl]-1,1-dimethyl-2-(4-methoxyphenyl)ethylamine]
pIC50 [1]: < 4.30

CCCCCCCCOCC(O)CNC(C)(C)Cc1ccc(OC)cc1 (stereo not drawn) [Compound 65, N-(2-Hydroxy-3-octanoxypropyl)-1,1-dimethyl-2-(4-methoxyphenyl)ethylamine]
pIC50: > 6.00

CCCCCCOCC(O)CNC(C)(C)Cc1ccc(OC)cc1 (stereo not drawn) [Compound 66, N-(2-Hydroxy-3-hexanoxypropyl)-1,1-dimethyl-2-(4-methoxyphenyl)ethylamine]
pIC50: > 5.00

CCCCCCCCCCOCC(O)CNC(C)(C)Cc1ccc(OC)cc1 (stereo not drawn) [Compound 67, N-(2-Hydroxy-3-decanoxypropyl)-1,1-dimethyl-2-(4-methoxyphenyl)ethylamine]
pIC50 [1]: > 6.00

COc1ccc(CC(C)(C)NCC(O)CSc2ccccc2)cc1 (stereo not drawn) [Compound 68, N-(2-Hydroxy-3-thiophenylpropyl)-1,1-dimethyl-2-(4-methoxyphenyl)ethylamine]
pIC50: > 5.00

CCCCCCCCC(O)CNC(C)(C)Cc1ccc(OC)cc1 (stereo not drawn) [Compound 69, N-(2-Hydroxydecanyl)-1,1-dimethyl-2-(4-methoxyphenyl)ethylamine]
pIC50: > 6.00

CCCCCCCCCCC(O)CNC(C)(C)Cc1ccc(OC)cc1 (stereo not drawn) [Compound 70, N-(2-Hydroxydodecanyl)-1.1-dimethyl-2-(4-methoxyphenyl)ethylamine]
pIC50: < 4.30

C=CCCCCCCC(O)CNC(C)(C)Cc1ccc(OC)cc1 (stereo not drawn) [Compound 71, N-(2-Hydroxydec-9-enyl)-1,1-dimethyl-2-(4-methoxyphenyl)ethylamine]
pIC50: > 5.00

CCCCCCCCCCCCOCC(O)CNC(C)(C)Cc1ccc(OC)cc1 (stereo not drawn) [Compound 72, N-(3-Dodecanoxy-2-hydroxypropyl)-1,1-dimethyl-2-(4-methoxyphenyl)ethylamine]
pIC50 [1]: > 6.00

COc1ccc(CC(C)(C)NCC(O)COCC23CC4CC(CC(C4)C2)C3)cc1 (stereo not drawn) [Compound 74, N-[2-Hydroxy-3-(1-adamantylmethoxy)propyl]-1,1-dimethyl-2-(4-methoxyphenyl)ethylamine Hydrochloride]
pIC50 [1]: > 6.00

COc1ccc(CC(C)(C)NCC(O)COCC2CCCCC2)cc1 (stereo not drawn) [Compound 75, N-(2-Hydroxy-3-cyclohexylmethoxypropyl)-1,1-dimethyl-2-(4-methoxyphenyl)ethylamine Hydrochloride]
pIC50: > 5.00

COc1ccc(CC(C)(C)NCC(O)CCc2ccccc2)cc1 (stereo not drawn) [Compound 79, N-(2-Hydroxy-4-phenylbutyl)-1,1-dimethyl-2-(4-methoxyphenyl)ethylamine Hydrochloride]
pIC50: > 4.30

COc1ccc(CC(C)(C)NCCc2ccccc2)cc1 [Compound 84, N-(2-Phenylethyl)-1,1-dimethyl-2-(4-methoxyphenyl)ethylamine]
pIC50: < 4.30

COc1ccc(CCC(C)(C)NCC(O)COc2ccccc2)cc1 (stereo not drawn) [Compound 90, N-(2-Hydroxy-3-phenoxypropyl)-1,1-dimethyl-3-(4-methoxyphenyl)propylamine Hydrochloride]
pIC50 [1]: > 4.30

CC(C)(Cc1cccc2ccccc12)NCC(O)COc1ccccc1 (stereo not drawn) [Compound 92, N-(2-hydroxy-3-phenoxypropyl)-1,1-dimethyl-2-(1-naphthyl)ethylamine]
pIC50 [1]: < 4.30

COc1ccc(CC(C)(C)NCC(O)COC2CCCCC2)cc1 (stereo not drawn) [Compound 93, N-(2-hydroxy-3-cyclohexoxypropyl)-1,1-dimethyl-2-(4-methoxyphenyl)ethylamine]
pIC50: > 5.00

COc1ccc(CC(C)(C)NCC(O)COC23CC4CC(CC(C4)C2)C3)cc1 (stereo not drawn) [Compound 96, N-[2-Hydroxy-3-(1-adamantanoxy)propyl]-1-1,1-dimethyl-2-(4-methoxyphenyl)ethyl amine]
pIC50 [1]: > 6.00

Cc1ccc(CC(C)(C)NCC(O)COc2ccccc2)cc1 (stereo not drawn) [Compound 98, N-(2-Hydroxy-3-phenoxypropyl)-1,1-dimethyl-2-(4-methylphenyl)ethylamine Hydrochloride]
pIC50 [1]: > 5.00

COc1cccc(CC(C)(C)NCC(O)COc2ccccc2)c1 (stereo not drawn) [Compound 99, N-(2-Hydroxy-3-phenoxypropyl)-1,1-dimethyl-2-(3-methoxyphenyl)ethylamine Hydrochloride]
pIC50 [1]: < 4.30

COc1ccc(CC(C)(C)NCC(C)(O)COc2ccccc2)cc1 (stereo not drawn) [Compound 101, N-(2-Hydroxy-2-methyl-3-phenoxypropyl)-1,1-dimethyl-2-(4-methoxyphenyl)ethylamine Hydrochloride]
pIC50 [1]: > 4.30

CCOc1ccc(CC(C)(C)NCC(O)COc2ccccc2)cc1 (stereo not drawn) [Compound 102, N-(2-hydroxy-3-phenoxypropyl)-1,1-dimethyl-2-(4-ethoxyphenyl)ethylamine]
pIC50 [1]: < 4.30

CC(C)(Cc1ccc(Cl)cc1)NCC(O)COc1ccccc1 (stereo not drawn) [Compound 103, N-(2-Hydroxy-3-phenoxypropyl)-1,1-dimethyl-2-(4-chlorophenyl)ethylamine Hydrochloride]
pIC50 [1]: > 5.00

CC(C)(Cc1cccc(Cl)c1)NCC(O)COc1ccccc1 (stereo not drawn) [Compound 104, N-(2-Hydroxy-3-phenoxypropyl)-1,1-dimethyl-2-(3-chlorophenyl)ethylamine Hydrochloride]
pIC50 [1]: > 5.00

COc1ccc(CC(C)(C)NC[C@@H](O)COc2cccc(Cl)c2C#N)cc1 [Compound 109, (R)—N-[2-Hydroxy-3-(3-chloro-2-cyanophenoxy)propyl]-1,1-dimethyl-2-(4-methoxyphenyl)-ethylamine Hydrochloride]
pIC50 [1]: > 6.00

CCc1ccc(CC(C)(C)NCC(O)COc2ccccc2)cc1 (stereo not drawn) [Compound 110, N-(2-Hydroxy-3-phenoxypropyl)-1,1-dimethyl-2-(4-ethylphenyl)ethylamine Hydrochloride]
pIC50 [1]: > 5.00

CC(C)(Cc1ccc(OC(F)(F)F)cc1)NCC(O)COc1ccccc1 (stereo not drawn) [Compound 111, N-(2-Hydroxy-3-phenoxypropyl)-1,1-dimethyl-2-(4-trifluoromethoxyphenyl)ethylamine Hydrochloride]
pIC50 [1]: > 5.00

CC(C)c1ccc(CC(C)(C)NCC(O)COc2ccccc2)cc1 (stereo not drawn) [Compound 112, N-(2-Hydroxy-3-phenoxypropyl)-1,1-dimethyl-2-(4-isopropylphenyl)ethylamine Hydrochloride]
pIC50 [1]: > 6.00

CCC(C)(Cc1ccc(OC)cc1)NCC(O)COc1ccccc1 (stereo not drawn) [Compound 113, N-(2-Hydroxy-3-phenoxypropyl)-1-ethyl-1-methyl-2-(4-methoxyphenyl)ethylamine Hydrochloride]
pIC50 [1]: > 6.00

CCC(CC)(Cc1ccc(OC)cc1)NCC(O)COc1ccccc1 (stereo not drawn) [Compound 114, N-(2-Hydroxy-3-phenoxypropyl)-1,1-diethyl-2-(4-methoxyphenyl)ethylamine Hydrochloride]
pIC50 [1]: > 5.00
